This note sets out measurements from PubChem BioAssay AID1259407 (Chemical Carcinogenesis Research Information System (CCRIS), 2018).

SMILES strings stand for the structures. Active and inactive are the calls of the source. The rule behind the calls is not given here.

In the data set the test system is CCRIS mutagenicity, Ames/micronucleus/aberration tests. The data set can be described thus: CCRIS mutagenicity studies.
Where [1] appears, read: Test System: AMES SALMONELLA TYPHIMURIUM, Strain/Indicator: TA98, Metabolic Activation: NONE, Method: PREINCUBATION
Setting [2] is: Test System: AMES SALMONELLA TYPHIMURIUM, Strain/Indicator: TA100, Metabolic Activation: NONE, Method: PREINCUBATION
Setting [3] is: Test System: AMES SALMONELLA TYPHIMURIUM, Strain/Indicator: TA102, Metabolic Activation: NONE, Method: PREINCUBATION

For the compound `CC1=CC(=O)C(C(C)C)=CC1=O`, the mutagenic call by setting is: under setting [1], “inactive; negative”; (Test System: AMES SALMONELLA TYPHIMURIUM, Strain/Indicator: TA98, Metabolic Activation: RAT, LIVER, S-9, PHENOBARBITAL AND 5,6-BENZOFLAVONE, Method: PREINCUBATION) “inactive; negative”; under setting [2], “inactive; negative”; (Test System: AMES SALMONELLA TYPHIMURIUM, Strain/Indicator: TA100, Metabolic Activation: RAT, LIVER, S-9, PHENOBARBITAL AND 5,6-BENZOFLAVONE, Method: PREINCUBATION) “inactive; negative”; under setting [3], “inactive; negative”; (Test System: AMES SALMONELLA TYPHIMURIUM, Strain/Indicator: TA102, Metabolic Activation: RAT, LIVER, S-9, PHENOBARBITAL AND 5,6-BENZOFLAVONE, Method: PREINCUBATION) “inactive; negative”. Further, the mutagenic call is, setting by setting: (Test System: AMES SALMONELLA TYPHIMURIUM, Strain/Indicator: TA104, Metabolic Activation: RAT, LIVER, S-9, PHENOBARBITAL AND 5,6-BENZOFLAVONE, Method: PREINCUBATION) “inactive; negative”; (Test System: AMES SALMONELLA TYPHIMURIUM, Strain/Indicator: TA2637, Metabolic Activation: NONE, Method: PREINCUBATION) “active; positive”; (Test System: AMES SALMONELLA TYPHIMURIUM, Strain/Indicator: TA2637, Metabolic Activation: RAT, LIVER, S-9, PHENOBARBITAL AND 5,6-BENZOFLAVONE, Method: PREINCUBATION) “inactive; negative”.
With `CN(CCC#N)c1ccc(N=Nc2ccc3ncsc3c2)cc1`, the mutagenic call runs as follows: (Test System: AMES SALMONELLA TYPHIMURIUM, Strain/Indicator: TA98, Metabolic Activation: RAT, LIVER, S-9, AROCLOR, Method: PREINCUBATION) “active; positive”; (Test System: AMES SALMONELLA TYPHIMURIUM, Strain/Indicator: TA98, Metabolic Activation: RAT, LIVER, S-9, AROCLOR, Method: STANDARD PLATE) “active; positive”.
Turning to `O=C(O)/C=C/C(=O)O`, the mutagenic call was “inactive; negative” (Test System: AMES SALMONELLA TYPHIMURIUM, Strain/Indicator: TA97, Metabolic Activation: HAMSTER, LIVER, S-9, AROCLOR 1254 (10 OR 30%), Method: PREINCUBATION); “inactive; negative” (Test System: AMES SALMONELLA TYPHIMURIUM, Strain/Indicator: TA97, Metabolic Activation: NONE, Method: PREINCUBATION); “inactive; negative” (Test System: AMES SALMONELLA TYPHIMURIUM, Strain/Indicator: TA97, Metabolic Activation: RAT, LIVER, S-9, AROCLOR 1254 (10 OR 30%), Method: PREINCUBATION); “inactive; negative” (Test System: AMES SALMONELLA TYPHIMURIUM, Strain/Indicator: TA97, Metabolic Activation: RAT, LIVER, S-9, AROCLOR 1254, Method: PREINCUBATION); “inactive; negative” (Test System: AMES SALMONELLA TYPHIMURIUM, Strain/Indicator: TA98, Metabolic Activation: HAMSTER, LIVER, S-9, AROCLOR 1254 (10 OR 30%), Method: PREINCUBATION); “inactive; negative” under setting [1]. Further, the mutagenic call is, setting by setting: (Test System: AMES SALMONELLA TYPHIMURIUM, Strain/Indicator: TA98, Metabolic Activation: RAT, LIVER, S-9, AROCLOR 1254 (10 OR 30%), Method: PREINCUBATION) “inactive; negative”; (Test System: AMES SALMONELLA TYPHIMURIUM, Strain/Indicator: TA100, Metabolic Activation: HAMSTER, LIVER, S-9, AROCLOR 1254 (10 OR 30%), Method: PREINCUBATION) “inactive; negative”; under setting [2], “inactive; negative”; (Test System: AMES SALMONELLA TYPHIMURIUM, Strain/Indicator: TA100, Metabolic Activation: RAT, LIVER, S-9, AROCLOR 1254 (10 OR 30%), Method: PREINCUBATION) “inactive; negative”; under setting [3], “inactive; negative”; (Test System: AMES SALMONELLA TYPHIMURIUM, Strain/Indicator: TA102, Metabolic Activation: RAT, LIVER, S-9, AROCLOR 1254, Method: PREINCUBATION) “inactive; negative”. Besides, the mutagenic call (Test System: AMES SALMONELLA TYPHIMURIUM, Strain/Indicator: TA1535, Metabolic Activation: HAMSTER, LIVER, S-9, AROCLOR 1254 (10 OR 30%), Method: PREINCUBATION) was “inactive; negative”; the mutagenic call (Test System: AMES SALMONELLA TYPHIMURIUM, Strain/Indicator: TA1535, Metabolic Activation: NONE, Method: PREINCUBATION) is “inactive; negative”; the mutagenic call (Test System: AMES SALMONELLA TYPHIMURIUM, Strain/Indicator: TA1535, Metabolic Activation: RAT, LIVER, S-9, AROCLOR 1254 (10 OR 30%), Method: PREINCUBATION) was “inactive; negative”; the mutagenic call (Test System: MOUSE LYMPHOMA, Strain/Indicator: L5178Y (TK+/TK-), Metabolic Activation: NONE, Method: SUSPENSION/PLATE) is “active; positive. reevaluation of results: positive”; the mutagenic call (Test System: MOUSE LYMPHOMA, Strain/Indicator: L5178Y (TK+/TK-), Metabolic Activation: RAT, LIVER, S-9, AROCLOR 1254, Method: SUSPENSION/PLATE) was “active; positive. reevaluation of results: positive”.
Turning to `Cc1c2ccccc2c(CO)c2c3c(ccc12)[C@@H](O)[C@H](O)C=C3`, the mutagenic call is, setting by setting: (Test System: CHINESE HAMSTER V-79, Strain/Indicator: V-79/6-THIOGUANINE, Metabolic Activation: CELL-MEDIATED, Method: STANDARD PLATE) “active; positive”; (Test System: CHINESE HAMSTER V-79, Strain/Indicator: V-79/OUABAIN, Metabolic Activation: CELL-MEDIATED, Method: STANDARD PLATE) “active; positive”.
